# According to patent US20260232681A1, “CRYSTALLINE FORMS OF N-[4-[4-(4-MORPHOLINYL)-7H-PYRROLO[2,3-D]PYRIMIDIN-6- YL]PHENYL]-4-[[3(R)-[(L-OXO-2-PROPEN-L-YL)AMINO]-L-PIPERIDINYL]METHYL]-2-PYRIDINECARBOXAMIDE AS A COVALENT INHIBITOR OF MENIN-MLL INTERACTION” (BIOMEA FUSION, INC., priority 2023, published 2026):
# Entries after “also recorded” stand apart in the source; their conditions may differ.
# Tests used:
# [1] = tested on: Zucker Diabetic Fatty (ZDF) rats; experiment: Glycemic control in ZDF rats, 16-day dosing plus two-week washout (Examples 102, 105); format: in vivo, rat
# Method: The present examples provides the ability of Compound 10 to restore glycemic control to diabetic Zucker diabetic fatty rats (ZDF rats, genotype ZDF-Lepr^fa/Crl; Charles River). Cornicelli et al., 2005, Charles River.
# (§1) Control and test compounds were stored at 4° C. and prepared weekly as needed. The vehicle for positive control pioglitazone was 0.25% carboxymethylcellulose and 1% Tween® 80 in reverse osmosis deionized water. The vehicle for Compound 10 was 10% DMSO, 10% Solutol HS 15, and 80% (10% hydroxypropyl-β-cyclodextrin in 50 mM citrate buffer at pH 3.0).
# (§2) On Day −3, twenty-four ZDF rats (plus eight spare ZDF rats) were measured for body weight and non-fasting glucose. LabDiet 5008 was provided ad libitum throughout the study, except during designated procedures, as was water. In order to minimize the effects of stress on blood glucose and body, all animals including the spares received daily sham doses with phosphate buffered saline pH 7.2 (dose volume 5 mL/kg) via gavage beginning on Study Day −5 to Day −1.
# Vehicle, control, and test compound were administered via oral gavage according to the following design on Days 1-16.
# (§3) On Days −3, 1, 8, and 14 non-fasting blood glucose was measured. On Day 15, an oral glucose tolerance test was administered. The animals were weighed, and the animals were placed in clean cages without food. Access to water was provided throughout the procedure. The animals were fasted for five hours and a blood glucose measurement was determined. The animals were dosed via oral gavage with 2 g/kg glucose (10 mL/kg). Blood glucose was determined via tail snip. The second drop of blood from the animal was placed on a hand-held glucometer (Abbott Alpha Trak) at the following times relative to the glucose dose: zero (just prior to glucose dose), 15, 30, 60, 90, and 120 min. Following the final blood glucose measurement, food was returned to the cages. On Day 17, 4-hour fasting glucose was measured. Serum samples were used to measure insulin by ELISA. Analysis was performed in one to three days of each collections. On Day 17, terminal blood collection was obtained at about 8 mL per animal and measured for blood glucose.
# (§4) ZDF rats were treated daily with Compound 10, vehicle, or pioglitazone for sixteen days and monitored for an additional two weeks post-treatment until Day 29. STZ rat models were induced through pre-treatment of animals on a high-fat diet with low doses of streptozotocin at Day −14 and Day −7 prior to starting treatment at Day Zero until Day 16. ZDF and STZ rats were monitored for fasting blood glucose levels, oral glucose tolerance test (OGTT), insulin and C-peptide levels, HOMA-IR (Homeostatic Model Assessment of Insulin Resistance), blood lipemic levels, and body weight according to the schematic for each model below. ZDF rats were analyzed for indicated readouts for fifteen days post-treatment for OGTT at Day 29, and serum insulin and C-peptide at Day 31.
# ZDF Rat Model—three treatment groups 1. Vehicle; 2. Compound 10 at 175 mg/kg; and 3. Pioglitazone at 30 mg/kg; n=10 per group. Daily dosing zero to sixteen days QD→drug wash out at sixteen to twenty-nine days. Rats were monitored for the following parameters through dosing and wash out phases—body weight, fasting blood sugar, blood insulin, C-peptide, and OGTT.
# [2] = tested on: streptozotocin (STZ) induced type II diabetes in Wistar Han rats; experiment: Glycemic control in streptozotocin-induced diabetic rats (Examples 103, 105); format: in vivo, rat
# Method: The present example provides the ability of Compound 10 to restore glycemic control to streptozotocin (STZ) induced type II diabetes in Wistar Han rats. Fahmy et al., 2017, World J. Pharm. Med. Res. 3(3):37-39.
# as §1, with “3.0). The vehicle for streptozotocin pretreatment was 0.1 M sodium citrate pH 4.5.” for “3.0).”
# as §2, with “Wistar Han” for “ZDF”, “Starting on Day −42, D12451 Research Diet” for “LabDiet 5008”, “−1. 20% Glucose in drinking water (200 g/L) was provided ad libitum for 24 hr after streptozotocin injection on Day −14 and Day −7.” for “−1.”
# On Days −14 and −7, streptozotocin was administered at 30 mg/kg/day QD intraperitoneally. Starting on Day 1, control and test compound were administered on the following schedule.
# as §3, with “−7 to −1 and on Days” for “−3,”, “weighed” for “weighed,”, “venipuncture.” for “tail snip.”, “collection.” for “collections.”
# as §4
# STZ Rat Model—three treatment groups 1. Vehicle; 2. Compound 10 at 175 mg/kg; and 3. Pioglitazone at 30 mg/kg; n=10 per group. […] Rats were monitored for the following parameters through dosing—body weight, blood glucose levels, and OGTT.
# [3] = tested on: CLL samples isolated from patients; experiment: Ex vivo CLL patient samples, antileukemic activity; format: cell-based, human; details: CLL ex vivo patient samples, 1 μM exposure
# [4] = 16 days treatment, listed as Compound 10
compound,measurement,setting,value
"C=CC(=O)N[C@@H]1CCCN(Cc2ccnc(C(=O)Nc3ccc(-c4cc5c(N6CCOCC6)ncnc5[nH]4)cc3)c2)C1 [Compound A, N-[4-[4-(4-morpholinyl)-7H-pyrrolo[2,3-d]pyrimidin-6-yl]phenyl]-4-[[3(R)-[(1-oxo-2-propen-1-yl)amino]-1-piperidinyl]methyl]-2-pyridinecarboxamide]",blood lipemic levels,[1]; [4],significantly reduces; also recorded: Significant reductions
same,body weight,[1]; [4],reduces body weight; also recorded: Significant reductions
same,"oral glucose tolerance test, glucose control","[1]; Day 29, after fourteen days of no treatment",significant glucose control
same,"oral glucose tolerance test, glucose control",[1]; after fifteen days of treatment,significant glucose control
same,serum insulin and C-peptide levels,"[1]; after two weeks of treatment, p<0.05",significantly reduced
same,insulin in the non-fasting and fasting states,[1]; compared to vehicle and control,significant reduction
same,4-hour fasting insulin and glucose,[1]; no therapy for two weeks,increasing insulin and glucose lowering
same,insulin resistance (HOMA-IR),"[1]; non-fasting and fasting, listed as Compound 10",significant reduction; also recorded: increases insulin sensitivity; also recorded: reduced
same,glucose in the non-fasting and fasting states,"[1]; oral gavage Days 1-16, compared to vehicle and control",significant reduction
same,C-peptide,[1]; two weeks after therapy,increasing C-peptide
same,blood lipemic levels,[2]; STZ rats,Significant reductions
same,body weight,[2]; STZ rats,Significant reductions
same,"oral glucose tolerance test, glucose control","[2]; STZ rats, after fifteen days of treatment",significant glucose control
same,insulin in the non-fasting state,[2]; STZ-induced diabetes model,significant reduction
same,non-fasting glucose,"[2]; STZ-induced diabetes model, compared to vehicle and control",sharp reduction
same,cell lethality,[3],> 98%
